From patent US4992535A, “Methods of making novel R and S diastereomers of N^6 -[(2-hydroxypropyl)aryl]adenosines” (G. D. Searle & Co., priority 1988, dated 1991)
Entries after “also recorded” stand apart in the source; their conditions may differ.

Key:
[1] = tested on: PRA in Sprague Dawley rats with renal arteries ligated; assay: Plasma renin activity (PRA) in the bilateral renal artery ligated rat; type: in vivo; settings: 1 mg/kg IV; for prevention of PRA increase, in words: 30 and 60 minutes; for Change in PRA at 30 minutes: 30 minutes after dosing; for Change in PRA at 60 minutes: 60 minutes after dosing
Protocol: Adenosine Al receptor stimulation will inhibit the release of renin from the kidney. A stimulus for the release of renin is renal ischemia. The ability of the compounds of the present invention to prevent an increase in PRA following renal ischemia was tested in rats with both renal arteries ligated. Sprague Dawley rats were anesthetized with ether and the renal arteries were ligated. Three to five hours after anesthesia, arterial blood was sampled and compounds I, II or III were administered in polyethylene glycol at 1 mg/kg I.V. At 30 and 60 minutes after administration, arterial blood was sampled for PRA measurement by the method of Sealy, J. E. et al., Cardiovasc. Med. 2:1079, 1977.

[2] = tested on: mice; assay: Behavioral signs of toxicity in mice; type: in vivo; set-up: key to Motor depression / Ptosis / Respiratory depression / Flaccidity / Loss of righting reflex: +: toxic symptom observed; +*: * = 2/7; +^#: ^# = 5/7; settings: 75 mg/kg IP
Protocol: (§1) Adenosine analogs tend to produce sedation and central nervous system depression which have prevented their therapeutic utility. The compounds of the invention, at doses which lower arterial pressure in the SHR, show no evidence of CNS depression. The ataxia produced by compounds of the present invention was measured in mice by injecting the compounds IP at doses of 32, 56, or 75 mg/kg in an aqueous suspension, n=7 per dose. The mice had previously been trained to remain on a rotating rod. After dosing, the percent of mice unable to remain on the rotating rod was determined. […] The mice were also observed at various time intervals for behavioral signs of toxicity.

[3] = tested on: mice; assay: Ataxia, rotating rod, in mice; type: in vivo, mouse; settings: for Percent ataxic, 0.5 hour / Percent ataxic, 3 hour: 54 ± 12 mg/kg ip (pooled 32, 56, 75 mg/kg); for ataxia / motor toxicity compared to compound I, in words: ip, 0.5 or 3 hours
Protocol: as §1

[4] = target: T1, adenosine A1 receptor (Rattus norvegicus, UniProt P25099); assay: Adenosine A1 receptor binding, inhibition of HPIA binding to crude plasma membranes
T1 construct: Crude plasma membranes were prepared; from tissue; host or cells: crude plasma membranes
T1 sequence (P25099 1-326): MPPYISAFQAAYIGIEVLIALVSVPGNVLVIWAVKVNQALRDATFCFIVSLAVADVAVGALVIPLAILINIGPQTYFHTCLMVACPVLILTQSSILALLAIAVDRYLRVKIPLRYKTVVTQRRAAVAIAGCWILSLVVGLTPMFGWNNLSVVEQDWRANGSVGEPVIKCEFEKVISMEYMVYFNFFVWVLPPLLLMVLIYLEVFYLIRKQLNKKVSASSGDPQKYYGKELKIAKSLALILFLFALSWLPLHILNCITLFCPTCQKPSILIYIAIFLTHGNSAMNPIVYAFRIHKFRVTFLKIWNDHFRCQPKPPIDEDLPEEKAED
Protocol: The binding potency of compound I, II and III to the adenosine Al receptor was measured according to the method of Schwabe, U. et al., Naunyn Schmeid. Arch. Pharmacol. 321:84, 1982. Crude plasma membranes were prepared and varying concentrations of compounds I, II or III were added to the membrane preparation in the presence of ^125 -N-p hydroxyphenyl isopropyladenosine (HPIA). The affinity of the compounds for the adenosine Al receptor was estimated from the concentrations necessary to inhibit the binding of HPIA by 50% (IC50).

[5] = tested on: adenosine A1 receptor in the granular juxtaglomerular cells of the kidney; settings: Federation Proceedings 44:879 & 1643, 1985; cited from earlier work
[6] = tested on: spontaneously hypertensive rats (SHR); assay: Mean arterial pressure and heart rate in conscious spontaneously hypertensive rats (IV and intragastric); type: in vivo, rat; settings: for Maximum decrease at 20 mg/kg ig, HR / Maximum decrease at 20 mg/kg ig, MAP: day 2 of oral administration; for ED (100 b/min decrease) / ED (40 mmHg decrease): Rattus norvegicus, IV; for ED (100 b/min decrease): read-out: IV dose to decrease HR by 100 b/min; for ED (40 mmHg decrease): read-out: IV dose to decrease MAP by 40 mmHg
Protocol: The effects of compounds I and II were tested intravenously or intragastrically in conscious spontaneously hypertensive rats (SHR). The rats were anesthetized with ether and the left carotid artery and right jugular vein were cannulated with polyethylene tubing. The rats were allowed three to five hours recovery from anesthesia for the I.V. studies and 12 to 18 hours for the oral studies. Mean arterial pressure (MAP, in mm/Hg) and heart rate (HR, beats/min.) were measured from the artery; intravenous administration of compounds was performed by injection into the vein. Oral administration was performed by gastric intubation. Compounds were dissolved in DMSO for I.V. studies and injected in volumes of […] or less (N=5 per compound). Doses were 3 to 1,000 mg/kg. Compounds were dissolved in polyethylene glycol for oral administration and injected in volumes of 1 ml/kg at dose of 20 mg/kg/day for three days (N=3 to 6 per compound).
The resting MAP and HR for the SHR ranged between 160-200 mm Hg and 330/350 b/min., respectively.

[7] = tested on: hypertensive models; settings: Federation Proceedings 44:879 & 1643, 1985; cited from earlier work
[8] = tested on: central nervous system; assay: CNS toxicity / CNS depression, general statements; type: in vivo; settings: summary statement

Row | SMILES | prevention of PRA increase, in words [1] | Change in PRA at 30 minutes [1] [ngAI/ml/hr] | Change in PRA at 60 minutes [1] [ngAI/ml/hr] | behavioral toxicity in words ([2]; 18-20 hours) | Flaccidity ([2]; 18-20 hr) | Motor depression ([2]; 18-20 hr) | Ptosis ([2]; 18-20 hr) | Motor depression ([2]; 0.5 hr) | Ptosis ([2]; 0.5 hr) | Respiratory depression ([2]; 0.5 hr) | Motor depression ([2]; 3 hr) | Ptosis ([2]; 3 hr) | Respiratory depression ([2]; 3 hr) | Percent ataxic, 0.5 hour [3] [%] | Percent ataxic, 3 hour [3] [%] | IC50 [4] [nM] | Maximum decrease at 20 mg/kg ig, HR [6] [b/min] | Maximum decrease at 20 mg/kg ig, MAP [6] [mmHg] | ED (100 b/min decrease) [6] [mg/kg] | ED (40 mmHg decrease) [6] [mg/kg] | other results
1 | OC[C@H]1O[C@@H](n2cnc3c(NCC(O)COc4cccc5ccccc45)ncnc32)[C@H](O)[C@@H]1O (mixture of isomers) [Compound I, N(6) [2 hydroxy-3-(1 naphthyloxy)propyl]-adenosine] | prevented to the same extent | -2.9 ± 5.0 | -9.4 ± 7.4 | still producing several of the toxic symptoms | +* | + | + | + | + | + | + | + | + | 33 ± 10 | 95 ± 5 | 1.2 | 214 ± 14 | 50 ± 13 | 0.037 ± 0.0013 | 0.052 ± 0.0013 | Respiratory depression ([2]; 18-20 hr): +; behavioral toxicity in words ([2]; 3 hours): also produced flaccidity and loss of writhing reflex; Flaccidity ([2]; 3 hr): +; Loss of righting reflex ([2]; 3 hr): +; binding to the adenosine A1 receptor, in words [5]: binds to the adenosine Al receptor; inhibition of renin release into the plasma, in words [5]: inhibit release of renin into the plasma; arterial blood pressure and heart rate, in words [7]: reducing arterial blood pressure and heart rate
2 | OC[C@H]1O[C@@H](n2cnc3c(NC[C@@H](O)COc4cccc5ccccc45)ncnc32)[C@H](O)[C@@H]1O [II, N-[2R-hydroxy-3-(1-naphthalenyloxy)propyl]-adenosine] | prevented to the same extent | -11.7 ± 3.5 | -13.8 ± 4.9 | still producing several of the toxic symptoms | + | + | + | + | + | + | + | + | + | 14 ± 8 | 48 ± 21 | 1.2 | 202 ± 24 | 62 ± 7 | 0.036 ± 0.0012 | 0.047 ± 0.0012 | Respiratory depression ([2]; 18-20 hr): +; behavioral toxicity in words ([2]; 24 hours): still producing toxic symptoms; Motor depression ([2]; 24 hr): +^#; Ptosis ([2]; 24 hr): +^#; Respiratory depression ([2]; 24 hr): ^#; ataxia / motor toxicity compared to compound I, in words [3]: less motor toxicity than compound I; also recorded: less toxic than compound I with regard to ataxia; also recorded: less ataxia at 0.5 or 3 hours as compared to compound I; central nervous system toxicity, comparison in words [8]: less central nervous system toxicity than the S diastereomer; also recorded: less central nervous system toxicity than the racemic mixture
3 | OC[C@H]1O[C@@H](n2cnc3c(NC[C@H](O)COc4cccc5ccccc45)ncnc32)[C@H](O)[C@@H]1O [III, N-[2S-hydroxy-3[1-naphthalenyloxy)propyl]-adenosine] | prevented to the same extent | -6.6 ± 4.0 | -6.3 ± 3.9 | no toxicity was observed | – | – | – | + | + | + | + | + | + | 14 ± 0 | 57 ± 8 | 1.2 | 177 ± 19 | 50 ± 14 | 0.031 ± 0.0014 | 0.033 ± 0.0012 | behavioral toxicity, overall comparison in words ([2]; mice): substantially less toxic than compounds I and II; also recorded: less CNS toxic than compound II with regard to behavioral toxicity; ataxia / motor toxicity compared to compound I, in words [3]: less motor toxicity than compound I; also recorded: less ataxia at 0.5 or 3 hours as compared to compound I
